In ChEMBL document CHEMBL3714716, “Modulators of the relaxin receptor 1” (2015):
The source made the active and inactive calls. No cut-off for these calls is given here.

Tests used:
[1] = target: T1, Relaxin receptor 1 (Homo sapiens, UniProt Q9HBX9); test: Agonist activity at RXFP1 receptor (unknown origin) expressed in HEK293 cells assessed as stimulation of cAMP production incubated for 30 mins by TR-FRET based HTRF assay; format: functional, cell-based
T1 sequence (Q9HBX9 whole entry): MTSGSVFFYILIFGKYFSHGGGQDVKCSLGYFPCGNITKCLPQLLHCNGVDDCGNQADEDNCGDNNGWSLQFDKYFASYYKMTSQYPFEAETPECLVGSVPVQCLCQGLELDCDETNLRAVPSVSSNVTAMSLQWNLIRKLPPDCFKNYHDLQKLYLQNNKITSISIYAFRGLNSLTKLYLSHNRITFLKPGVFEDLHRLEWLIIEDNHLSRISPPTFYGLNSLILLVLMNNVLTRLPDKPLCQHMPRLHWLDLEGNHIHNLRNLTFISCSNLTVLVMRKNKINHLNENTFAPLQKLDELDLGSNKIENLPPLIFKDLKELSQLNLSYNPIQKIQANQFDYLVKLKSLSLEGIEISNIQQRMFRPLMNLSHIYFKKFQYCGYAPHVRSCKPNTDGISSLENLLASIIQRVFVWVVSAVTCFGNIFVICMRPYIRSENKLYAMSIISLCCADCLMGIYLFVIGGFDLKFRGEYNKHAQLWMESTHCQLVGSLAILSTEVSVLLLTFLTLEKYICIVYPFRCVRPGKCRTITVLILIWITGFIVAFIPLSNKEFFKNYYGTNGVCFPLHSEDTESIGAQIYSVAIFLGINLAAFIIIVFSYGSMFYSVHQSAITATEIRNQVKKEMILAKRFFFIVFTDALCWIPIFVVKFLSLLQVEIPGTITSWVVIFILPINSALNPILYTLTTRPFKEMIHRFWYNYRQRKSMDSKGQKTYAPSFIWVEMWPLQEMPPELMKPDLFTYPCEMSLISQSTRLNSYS

[2] = target: T2, Relaxin receptor 1 (Homo sapiens) (UniProt Q9HBX9); test: Agonist activity at RXFP1 receptor (unknown origin) expressed in HEK293 cells assessed as stimulation of cAMP production incubated for 30 mins by TR-FRET based HTRF assay relative to forskolin; format: functional, cell-based
T2 sequence (whole entry): T1 sequence (Q9HBX9 whole entry)

SMILES | AC50 ([1]; read-out: AC50) [µM] | %max [2] | AC50 ([1]; hek293)
Cc1ccc(NC(=O)c2ccccc2NC(=O)C2CCCCC2)cc1 | 187 | 32% | 
O=C(Nc1cccc(C(F)(F)F)c1)c1ccc(NC(=O)C2CCCCC2)cc1 |  | inactive | Not Active
COc1cccc(OC)c1C(=O)Nc1ccccc1C(=O)Nc1cccc(C(F)(F)F)c1 | 7.47 | 42% | 
CCOc1ccccc1C(=O)Nc1ccccc1C(=O)Nc1ccccn1 | 29.7 | 74% | 
CCOc1ccccc1C(=O)Nc1ccccc1C(=O)Nc1cccc(C(C)(C)C)c1 | 1.06 | 93% | 
O=C(Nc1cccc(-c2ccccc2C(F)(F)F)c1)c1ccccc1NC(=O)C1CCCCC1 | 2.65 | 74% | 
O=C(Nc1cccc(C(F)(F)F)c1)c1ccccc1NC(=O)C1CCC1 | 2.97 | 75% | 
CSc1cccc(NC(=O)c2ccccc2NC(=O)C2CCCCC2)c1 | 5.29 | 84% | 
CCOc1ccccc1C(=O)Nc1ncccc1C(=O)Nc1cccc(S(=O)(=O)C(F)(F)F)c1 | 1.67 | 98% | 
CCOc1ccccc1C(=O)Nc1ccccc1C(=O)Nc1cccc(C#N)c1 | 0.666 | 96% | 
O=C(Nc1cccc(C(F)(F)F)c1)c1ccccc1NCCc1ccccc1 | 9.4 | 83% | 
O=C(Nc1cccc(C(F)(F)F)c1)c1ccccc1NC(=O)c1ccccc1[N+](=O)[O-] | 188 | 30% | 
O=C(Nc1ccc(Br)cc1)c1ccccc1NC(=O)C1CCCCC1 | 118 | 50% | 
O=C(Nc1ccc(C(F)(F)F)cc1)c1ccccc1NC(=O)C1CCCCC1 | 94 | 46% | 
O=C(Nc1ccccc1C(=O)Nc1cccc(C(F)(F)F)c1)c1cccc([N+](=O)[O-])c1 | 1.06 | 84% | 
CCCCC(=O)Nc1ccccc1C(=O)Nc1cccc(C(F)(F)F)c1 | 5.29 | 94% | 
O=C(Nc1cccc(-c2ccccc2)c1)c1ccccc1NC(=O)C1CCCCC1 |  | inactive | 
O=CNc1ccccc1C(=O)Nc1cccc(C(F)(F)F)c1 | 47.1 | 78% | 
CC(C)c1cccc(NC(=O)c2ccccc2NC(=O)C2CCCCC2)c1 | 5.29 | 66% | 
O=C(Nc1cccc(C(F)(F)F)c1)c1ccccc1-c1ccccc1OCc1ccccc1 |  | inactive | Not Active
O=C(Nc1cccc(C(F)(F)F)c1)c1ccccc1NC(=O)c1ccccc1OCCN1CCOCC1 | 4.71 | 98% | 

SMILES | AC50 ([1]; read-out: AC50) [µM] | %max [2] | AC50 ([1]; hek293)
O=C(Nc1ccccc1Br)c1ccccc1NC(=O)C1CCCCC1 |  | inactive | Not Active
O=C(Nc1cccc(C(F)(F)F)c1)c1ccccc1Nc1cccc(C(F)(F)F)c1 | 4.2 | 93% | 
CCOc1ccccc1C(=O)Nc1ccncc1C(=O)Nc1cccc(S(=O)(=O)C(F)(F)F)c1 | 0.747 | 97% | 
O=C(Nc1ccccc1C(=O)Nc1cccc(C(F)(F)F)c1)c1ccccc1I | 7.47 | 80% | 
CCOc1ccccc1-c1nc2ccccc2c(=O)n1-c1cccc(-c2nnn[nH]2)c1 | 149 | 36% | 
COc1ccccc1CNc1ccccc1C(=O)Nc1cccc(C(F)(F)F)c1 | 59.3 | 57% | 
O=C(Nc1cccc(-c2cccs2)c1)c1ccccc1NC(=O)C1CCCCC1 | 471 | 31% | 
C/C=C\c1cccc(NC(=O)c2ccccc2NC(=O)c2ccccc2OCC)c1 |  | 91% | 
O=C(Nc1cccc(C(F)(F)F)c1)c1ccccc1Nc1ccccc1 | 4.2 | 84% | 
O=C(Nc1ccccc1C(=O)Nc1cccc(C(F)(F)F)c1)c1ccccc1Br | 7.47 | 78% | 
CCOc1ccccc1S(=O)(=O)Nc1ccccc1C(=O)Nc1cccc(S(=O)(=O)C(F)(F)F)c1 |  | inactive | 
O=C(NCc1ccccc1C(F)(F)F)c1ccccc1NC(=O)C1CCCCC1 |  | inactive | Not Active
COc1ccccc1C(=O)Nc1ccccc1C(=O)Nc1cccc(SC)c1 | 1.33 | 94% | 
O=C(Nc1ccc2c(c1)OCO2)c1ccccc1NC(=O)C1CCCCC1 | 74.7 | 58% | 
O=C(Nc1cccc(C(F)(F)F)c1)c1ccccc1NCc1cccc(C(F)(F)F)c1 | 47.1 | 71% | 
CCOc1ccccc1C(=O)Nc1ccccc1C(=O)Nc1cncc(I)c1 |  | 72% | 
O=C(Nc1ccccc1C(=O)Nc1cccc(C(F)(F)F)c1)c1cccc(C(F)(F)F)c1 | 2.97 | 95% | 
CC(=O)Nc1ccccc1C(=O)Nc1cccc(C(F)(F)F)c1 | 74.7 | 51% | 
O=C(Nc1ccccc1[N+](=O)[O-])c1ccccc1NC(=O)C1CCCCC1 |  | inactive | Not Active
CCOc1ccccc1-c1nc2c(C(=O)Nc3cccc(S(=O)(=O)C(F)(F)F)c3)cccc2[nH]1 |  | inactive | Not Active
CCOc1ccccc1C(=O)Nc1cnccc1C(=O)Nc1cccc(S(=O)(=O)C(F)(F)F)c1 | 2.97 | 99% | 

SMILES | AC50 ([1]; read-out: AC50) [µM] | %max [2] | AC50 ([1]; hek293)
O=C(Nc1cccc(C(F)(F)F)c1)c1ccccc1NC(=O)c1ccccc1C(F)(F)F | 7.47 | 70% | 
O=C(Nc1ccccc1C(=O)Nc1cccc(C(F)(F)F)c1)c1cc(C(F)(F)F)cc(C(F)(F)F)c1 | 4.2 | 94% | 
CCOc1ccccc1C(=O)Nc1ccccc1C(=O)Nc1cccnc1 | 149 | 37% | 
CCOc1ccccc1C(=O)Nc1ccccc1C(=O)Nc1cccc(I)c1 | 0.747 | 96% | 
Cc1ccc(CNC(=O)c2ccccc2NC(=O)C2CCCCC2)o1 | 149 | 31% | 
CCOc1ccccc1C(=O)Nc1ccccc1-c1nc2cc(C(F)(F)F)ccc2[nH]1 | 149 | 31% | 
COc1cccc(C(=O)Nc2ccccc2C(=O)Nc2cccc(C(F)(F)F)c2)c1 | 1.88 | 94% | 
CCOc1ccccc1C(=O)Nc1cccnc1C(=O)Nc1cccc(S(=O)(=O)C(F)(F)F)c1 | 4.71 | 73% | 
O=C(NCc1ccco1)c1ccccc1NC(=O)c1ccccc1NC(=O)C1CCCCC1 | 9.4 | 45% | 
CC(C)(C)OC(=O)N1CCN(CCOc2ccccc2C(=O)Nc2cccc(C(F)(F)F)c2)CC1 |  | inactive | Not Active
O=C(Nc1cccc(C(F)(F)F)c1)c1ccccc1OCCN1CCNCC1 |  | inactive | Not Active
O=C(NCc1cccc(C(F)(F)F)c1)c1ccccc1NC(=O)C1CCCCC1 |  | inactive | 
Cc1ccc(C(=O)Nc2ccccc2C(=O)Nc2cccc(C(F)(F)F)c2)cc1 | 4.71 | 85% | 
CCOc1ccccc1C(=O)NCCC(=O)Nc1cccc(S(=O)(=O)C(F)(F)F)c1 | 4.71 | 90% | 
COc1ccccc1C(=O)N(C)c1ccccc1C(=O)Nc1cccc(C(F)(F)F)c1 |  | inactive | 
Cc1ccccc1NC(=O)c1ccccc1NC(=O)C1CCCCC1 |  | inactive | 
COc1ccccc1C(=O)Nc1cccc(C(=O)Nc2cccc(C(F)(F)F)c2)c1 |  | inactive | 
CCOc1ccccc1-c1nc2ccccc2c2nc3ccc(C(F)(F)F)cc3n12 | 188 |  | 
O=C(Nc1cccc(-c2cccc(C(F)(F)F)c2)c1)c1ccccc1NC(=O)C1CCCCC1 |  | inactive | 
